Laboratory results reported in PMC3933693, “Novel Inhibitors of Mitochondrial sn-Glycerol 3-phosphate Dehydrogenase” (PLoS ONE, 2014).
Several values for one entry are separate records, joined by “and”; a condition that tells them apart may be missing. Equal entries are not always repeated.

How the values were obtained:
cortical synaptosomes = assay: Synaptosomal respiration (Seahorse XF24); format: cell-based, mouse; conditions: 100 µM iGP-1, 0.5 mM aminooxyacetate
Description: Synaptosomal respiration was tested in the Seahorse XF24 using published protocols, [41]. Synaptosomes (20 or 25 µg protein) were attached to polyethyleneimine and Geltrex-coated Seahorse plates by centrifugation in ionic medium, [41] containing 10 mM glucose. Attachment buffer was carefully replaced with ionic buffer containing DMSO, 100 µM iGP-1, 0.5 mM aminooxyacetate, or iGP-1 with aminooxyacetate, and either 10 mM pyruvate or 15 mM glucose. Plates were equilibrated for 20 min at 37°C then loaded into the instrument followed by measurement of basal respiration and injection of 5 µM FCCP (to induce maximal, uncoupled respiration) with 4 µg ⋅ mL^−1 oligomycin (to prevent compensatory reversal of ATP synthase). In some experiments, 10 mM oxamate was added with the FCCP/oligomycin to minimize regeneration of cytosolic NAD^+ by lactate dehydrogenase. Inhibition of the malate-aspartate shuttle was defined as the difference between maximal rates ± aminooxyacetate, expressed as % of control. Inhibition of the glycerol phosphate shuttle was the difference between maximal rates with aminooxyacetate ± iGP-1, as % of control.

[1] = system: skeletal muscle mitochondria; assay: Mitochondrial membrane potential (ΔΨm, TMRM) powered by succinate; format: biochemical, rat; conditions: 2.5 mM; 5 mM succinate, rotenone, nigericin
Description: Mitochondrial membrane potential (ΔΨm) was estimated fluorimetrically as described previously on the Varian fluorimeter, except the potentiometric dye TMRM was used in quench-mode in place of safranine O [34]. […] The effect of putative small-molecule inhibitors was normalized as the % change in fluorescence between vehicle treatment and complete depolarization by the uncoupler carbonyl cyanide-4-(trifluoromethoxy)phenylhydrazone (FCCP, 2 µM) added at the end of each run. When indicated, the K^+/H^+ exchanger nigericin (80 ng ⋅ ml^−1) was added to collapse the pH gradient across the mitochondrial inner membrane (ΔpH) and maximize ΔΨm.
The assay buffer for both H2O2 and ΔΨm measurements was 120 mM KCl, 5 mM HEPES, 1 mM EGTA, 0.3% (w/v) BSA without or with 250 nM free calcium at pH 7.0. All assays were performed with stirring at 37°C.
Structure/activity analysis was performed on 18 structural analogs of two structurally-related hits from the primary screen (iGP-1 and iGP-2). These 20 compounds were tested in duplicate at 0.08–80 µM (0.1% DMSO final) in microplate format for effects on site-specific H2O2 production as described above. Additionally, four microplate assays for ΔΨm were run in parallel to the H2O2 assays. These assays were as described under “Measurement of mitochondrial H2O2 production and membrane potential” except that each substrate condition was assayed in a separate microplate. […] Plates were incubated in the dark at room temperature for 30–40 min (H2O2) or 10–15 min (ΔΨm) after the addition of substrate, and endpoint fluorescence was measured on the Victor plate reader. Endpoints were chosen for the H2O2 assays to provide good signal-to-noise ratios and linear rates of change without the indicator dye limiting the reaction. Endpoints for the ΔΨm assays were determined in pilot experiments as the times for TMRM accumulation to reach a steady state. […] Endpoint fluorescence values were normalized as described in the previous section with wells containing FCCP serving as positive controls for the ΔΨm assays.

[2] = system: skeletal muscle mitochondria; assay: Mitochondrial membrane potential (ΔΨm, TMRM) powered by glycerol phosphate; format: biochemical, rat; conditions: 16.7 mM glycerol phosphate; for ΔΨm with GP + Nig (% change at 80 μM): 4 µM rotenone, nigericin
Description: (§2) Mitochondrial membrane potential (ΔΨm) was estimated fluorimetrically as described previously [33] on the Varian fluorimeter, except the potentiometric dye TMRM was used in quench-mode in place of safranine O [34]. […] The effect of putative small-molecule inhibitors was normalized as the % change in fluorescence between vehicle treatment and complete depolarization by the uncoupler carbonyl cyanide-4-(trifluoromethoxy)phenylhydrazone (FCCP, 2 µM) added at the end of each run. When indicated, the K^+/H^+ exchanger nigericin (80 ng ⋅ ml^−1) was added to collapse the pH gradient across the mitochondrial inner membrane (ΔpH) and maximize ΔΨm.
(§3) Additionally, four microplate assays for ΔΨm were run in parallel to the H2O2 assays. These assays were as described under “Measurement of mitochondrial H2O2 production and membrane potential” except that each substrate condition was assayed in a separate microplate. […] Plates were incubated in the dark at room temperature for 30–40 min (H2O2) or 10–15 min (ΔΨm) after the addition of substrate, and endpoint fluorescence was measured on the Victor plate reader. […] Endpoints for the ΔΨm assays were determined in pilot experiments as the times for TMRM accumulation to reach a steady state. At room temperature, this was typically ∼ 5 min and remained stable for at least 30 min. Endpoint fluorescence values were normalized as described in the previous section with wells containing FCCP serving as positive controls for the ΔΨm assays.

[3] = target: T1, flavin site of complex II (site IIF) (Rattus norvegicus, UniProt Q920L2); assay: Site-specific H2O2 production from site IIF in skeletal muscle mitochondria; format: biochemical
T1 construct: from tissue; host or cells: skeletal muscle mitochondria
T1 sequence (Q920L2 35-656): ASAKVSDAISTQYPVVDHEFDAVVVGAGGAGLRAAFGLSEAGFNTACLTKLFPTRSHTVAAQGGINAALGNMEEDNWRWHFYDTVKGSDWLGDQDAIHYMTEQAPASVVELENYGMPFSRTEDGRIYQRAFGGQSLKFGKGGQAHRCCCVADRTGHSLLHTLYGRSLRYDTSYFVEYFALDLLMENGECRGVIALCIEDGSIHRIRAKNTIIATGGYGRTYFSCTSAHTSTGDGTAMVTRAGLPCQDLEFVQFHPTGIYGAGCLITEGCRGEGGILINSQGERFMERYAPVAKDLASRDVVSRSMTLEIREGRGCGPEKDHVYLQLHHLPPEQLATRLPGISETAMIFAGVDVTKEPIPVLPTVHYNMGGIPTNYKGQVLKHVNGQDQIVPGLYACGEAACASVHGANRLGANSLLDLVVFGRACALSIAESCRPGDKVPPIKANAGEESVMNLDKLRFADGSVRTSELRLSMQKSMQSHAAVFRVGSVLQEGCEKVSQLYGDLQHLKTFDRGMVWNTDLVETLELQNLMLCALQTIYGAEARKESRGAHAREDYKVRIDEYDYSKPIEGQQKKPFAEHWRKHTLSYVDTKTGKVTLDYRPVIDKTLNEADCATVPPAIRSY
T1 sequence (P21913 31-282 partner): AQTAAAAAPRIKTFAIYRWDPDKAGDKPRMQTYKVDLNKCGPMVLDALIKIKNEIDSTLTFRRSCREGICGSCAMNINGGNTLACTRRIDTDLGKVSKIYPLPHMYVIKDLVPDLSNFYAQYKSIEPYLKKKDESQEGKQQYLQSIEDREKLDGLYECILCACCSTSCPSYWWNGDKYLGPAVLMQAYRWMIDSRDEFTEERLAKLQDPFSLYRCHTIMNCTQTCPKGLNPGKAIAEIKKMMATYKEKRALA
T1 sequence (Q641Z9 30-169 partner limits assumed): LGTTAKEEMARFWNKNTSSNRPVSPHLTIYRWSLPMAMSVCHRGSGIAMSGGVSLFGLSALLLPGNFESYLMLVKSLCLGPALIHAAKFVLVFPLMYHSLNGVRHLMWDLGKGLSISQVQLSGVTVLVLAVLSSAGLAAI
T1 sequence (Q6PCT8 57-159 partner): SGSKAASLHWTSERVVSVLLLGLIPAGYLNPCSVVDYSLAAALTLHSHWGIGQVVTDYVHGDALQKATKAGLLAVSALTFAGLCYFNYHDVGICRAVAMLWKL
Outline: (§1)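 Isolated rat skeletal muscle mitochondria; H2O2 read by Amplex UltraRed with added SOD and HRP. Site IF/DH: 5 mM glutamate, 5 mM malate, 4 µM rotenone. Site IIF: palmitoylcarnitine or succinate with rotenone/antimycin A/myxothiazol. Site IIIQo: succinate, rotenone, antimycin A. Screen at 2.5 µM, normalised as % change from DMSO.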

mGPDH [4] = target: T2, mGPDH (Rattus norvegicus, UniProt P35571); assay: Superoxide/H2O2 production by mGPDH in isolated skeletal muscle mitochondria (Amplex UltraRed); format: biochemical; conditions: for inhibition at 80 µM: read-out: mGPDH H2O2 production (% change at 80 μM)
T2 construct: Activity of mGPDH in frozen-thawed skeletal muscle mitochondria was measured; from tissue; host or cells: skeletal muscle mitochondria
T2 sequence (P35571 43-727): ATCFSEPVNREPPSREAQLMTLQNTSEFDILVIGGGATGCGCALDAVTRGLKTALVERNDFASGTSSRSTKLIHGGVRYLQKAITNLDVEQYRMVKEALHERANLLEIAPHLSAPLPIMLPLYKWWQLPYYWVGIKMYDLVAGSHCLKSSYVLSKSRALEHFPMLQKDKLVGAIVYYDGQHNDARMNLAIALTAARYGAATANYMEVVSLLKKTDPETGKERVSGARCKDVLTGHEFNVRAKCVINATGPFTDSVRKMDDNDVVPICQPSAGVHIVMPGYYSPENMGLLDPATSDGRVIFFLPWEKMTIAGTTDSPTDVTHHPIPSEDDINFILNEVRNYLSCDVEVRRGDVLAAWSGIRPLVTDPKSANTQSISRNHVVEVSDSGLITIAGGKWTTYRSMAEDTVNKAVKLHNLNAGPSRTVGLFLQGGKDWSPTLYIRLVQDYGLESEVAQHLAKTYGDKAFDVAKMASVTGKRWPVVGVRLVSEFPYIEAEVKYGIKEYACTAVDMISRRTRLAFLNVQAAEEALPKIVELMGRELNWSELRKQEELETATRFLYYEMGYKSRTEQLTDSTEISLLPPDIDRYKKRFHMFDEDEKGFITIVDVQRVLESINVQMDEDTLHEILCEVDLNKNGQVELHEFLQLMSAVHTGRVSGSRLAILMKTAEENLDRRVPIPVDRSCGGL

[5] = target: T3, outer ubiquinone-binding site of complex III (site IIIQo) (Rattus norvegicus, UniProt P00159+P20788); assay: Site-specific H2O2 production from site IIIQo in skeletal muscle mitochondria; format: biochemical; conditions: primary screen, ∼2.5 µM, average of duplicates; 5 mM succinate
T3 construct: from tissue; host or cells: skeletal muscle mitochondria
Outline: as §1

[6] = system: skeletal muscle mitochondria; assay: Mitochondrial membrane potential (ΔΨm, TMRM) powered by glutamate plus malate; format: biochemical, rat; conditions: for ΔΨm with Glu + Mal + Nig (% change at 80 μM) / ΔΨm with Glu + Mal (% change at 80 μM): 5 mM glutamate, 5 mM malate; for ΔΨm with Glu + Mal + Nig (% change at 80 μM): with nigericin; for ΔΨm with Glu + Mal (% change at 80 μM): without nigericin
Description: as §2, §3

[7] = system: flavin mononucleotide site of complex I (site IF) plus matrix NAD-linked dehydrogenases (site IF/DH); assay: Site-specific H2O2 production from site IF/DH in skeletal muscle mitochondria; format: biochemical, rat; conditions: primary screen, ∼2.5 µM, average of duplicates
Outline: as §1

[8] = system: ubiquinone-binding site of complex I (site IQ); assay: Site-specific H2O2 production from site IQ in skeletal muscle mitochondria; format: biochemical, rat; conditions: 5 mM succinate;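 also: H2O2 from superoxide detected by Amplex UltraRed fluorescence with added superoxide dismutase and horseradish peroxidase, endpoint read 30–40 min after substrate addition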
Description: Superoxide was measured as H2O2 after dismutation by endogenous or exogenous superoxide dismutase. Rates of total superoxide/H2O2 production were measured fluorimetrically using Amplex UltraRed in the presence of exogenous superoxide dismutase and horseradish peroxidase in a Varian Cary Eclipse fluorimeter as previously described [27]. Rates of production from specific sites were determined as previously described using the following eight conditions: flavin mononucleotide site of complex I (site IF) plus matrix NAD-linked dehydrogenases (collectively "site IF/DH") with 5 mM glutamate, 5 mM malate, and 4 µM rotenone [28]; ubiquinone-binding site of complex I (site IQ) with either 0.5 or 5 mM succinate [29]; flavin site of complex II (site IIF) with either 15 µM palmitoylcarnitine, 2.5 µM antimycin A, and 2 µM myxothiazol or 0.5 mM succinate, 4 µM rotenone, 2.5 µM antimycin A, and 2 µM myxothiazol [30], [31]; mGPDH with 1.7 mM glycerol phosphate, 4 µM rotenone, 2.5 µM antimycin A, 2 µM myxothiazol, 1 mM malonate, and 250 nM free calcium; outer ubiquinone-binding site of complex III (site IIIQo) with either 0.5 or 5 mM succinate, 4 µM rotenone and 2.5 µM antimycin A [32]. Candidate small-molecule inhibitors were added prior to the start of measurements and H2O2 calibration curves were performed in the presence of tested compounds.
3,200 compounds were tested initially at 2.5 µM (0.025% DMSO final) in duplicate on different plates against a panel of five distinct assays of site-specific superoxide/H2O2 production as described in the previous section with minor changes. […] Endpoint fluorescence was measured on a Perkin Elmer Victor V3 fluorescent plate reader. The fluorescence intensity of each well was normalized as % change from the average of eight DMSO controls on the same plate. Duplicate wells of each of four modulators of mitochondrial metabolism known to inhibit specific sites of superoxide/H2O2 production were included on each plate as positive controls and the resulting fluorescence levels set as −100% change from DMSO controls. Known inhibitors included 20 mM aspartate (for site IF/DH), 1 µM FCCP (for site IQ), 10 mM malonate (for site IIF), and 2 µM myxothiazol (for site IIIQo). The background fluorescence of the FCCP wells in the site IQ assay was used to normalize mGPDH plates run in parallel. To minimize position-dependent effects across each assay plate, Tukey’s two-way median polish was applied to fluorescence values after initial normalization [35], [36]. Tukey’s polish is an iterative subtraction of the median row and column values from each well’s given row or column. The procedure is repeated until sequential medians for each row and column are zero and positional gradients in fluorescence are eliminated.
These 20 compounds were tested in duplicate at 0.08–80 µM (0.1% DMSO final) in microplate format for effects on site-specific H2O2 production as described above. […] Plates were incubated in the dark at room temperature for 30–40 min (H2O2) or 10–15 min (ΔΨm) after the addition of substrate, and endpoint fluorescence was measured on the Victor plate reader. Endpoints were chosen for the H2O2 assays to provide good signal-to-noise ratios and linear rates of change without the indicator dye limiting the reaction.

[9] = system: skeletal muscle mitochondria; assay: Mitochondrial respiration (Seahorse XF24) in plate-attached skeletal muscle mitochondria; format: biochemical, rat
Description: The effects of small-molecule inhibitors on respiration were tested in plate-attached skeletal muscle mitochondria using a Seahorse XF24 Analyzer according to published protocols. Briefly, mitochondria (2 or 4 µg protein) were attached to Seahorse assay plates by centrifugation in a mannitol and sucrose-based medium (Seahorse MAS buffer) containing 0.3% (w/v) BSA without or with 250 nM free calcium at pH 7.0. […] Compounds were added in these media just prior to loading the assay plate into the Seahorse instrument. Additions were made to set respiration in basal state 2 (substrate only), phosphorylating state 3 (5 mM ADP), non-phosphorylating state 4o (0.5 ug ⋅ mL^−1 oligomycin), and to reveal the non-mitochondrial rate (2 µM myxothiazol and 2.5 µM antimycin A). Each concentration of compound was tested in at least two wells on each plate. At least three biological replicates of each titration in each substrate condition were performed.

mGPDH [10] = target: T2, mGPDH; assay: mGPDH enzymatic activity (DCPIP-linked reduction by glycerol phosphate) in frozen-thawed skeletal muscle mitochondria; format: biochemical
Description: Activity of mGPDH in frozen-thawed skeletal muscle mitochondria was measured as 2,6-dichlorophenolindophenol (DCPIP)-linked reduction by glycerol phosphate as described previously in the presence of 1 µM free calcium. Linear rates of change in absorbance (λ = 600 nm) were measured on the PHERAstar microplate reader and converted to rates of DCPIP reduction using an extinction coefficient of 21 mM^−1 ⋅ cm^−1 and a calculated pathlength of 0.6 cm. Kinetic parameters and inhibitor constants were determined by co-varying glycerol phosphate and novel inhibitors according to recommended procedures and calculated for each data set using GraphPad Prism. Vmax and Km were determined using hyperbolic curves fit to the Michaelis-Menten equation: rate = (Vmax ⋅ [substrate]) ⋅ (K m+[substrate])^ −1. Hill Slope and IC50 were determined using unconstrained, sigmoidal dose-response curve fits of % remaining activity against concentration of iGP. K ic and K iu were determined using plots of rate^−1 vs iGP and GP ⋅ rate^−1 vs iGP, respectively. Linear regression analysis yielded an average x-coordinate at which the best-fit lines intersect. These x-coordinates correspond to -K ic and -K iu in their respective plots. The apparent Vmax of mGPDH is dependent upon the concentration of DCPIP used, [38]. Therefore, to determine the maximal activity of mGPDH in isolated synaptosomes, DCPIP was replaced by 1 mM potassium ferricyanide and linear rates of change in absorbance (λ = 420 nm) were converted to rates of ferricyanide reduction using an extinction coefficient of 1.04 mM^−1 ⋅ cm^−1 and a calculated pathlength of 0.6 cm.

[11] = Fig. 4 structure/activity microplate assay, 0.08–80 µM, estimated, means of two replicates, read-out: mGPDH H2O2 production IC50

SMILES: NOCC(=O)O [aminooxyacetate, reference compound]
- effect on basal or maximal respiration with pyruvate (cortical synaptosomes; 10 mM pyruvate): no effect
- effect on basal and maximal respiration with glucose (cortical synaptosomes; 15 mM glucose, no oxamate): inhibited

SMILES: O=CC(O)COP(=O)(O)O (centres unmarked) [glyceraldehyde 3-phosphate, reference compound]
- effect on ΔΨm powered by succinate [1]: significantly increased
- effect on ΔΨm powered by glycerol phosphate ([2]; all concentrations tested, rotenone, atpenin A5, nigericin): significantly decreased
- effect on the rate of H2O2 production from site IIF ([3]; 0.5 mM succinate, rotenone, myxothiazol, antimycin A, Fig. 2B): significantly inhibited
- inhibition at 2500 µM (mGPDH [4]; 2.5 mM, 1.7 mM glycerol phosphate, 250 nM free calcium, read-out: inhibition of the rate of H2O2 production from mGPDH): ~80%

SMILES: O=C(O)CCC(=O)Nc1ccc(-c2nc3ccccc3o2)cc1 [iGP-2]
- IIIQo (% change from DMSO) [5]: 2.5%
- ΔΨm with Glu + Mal + Nig (% change at 80 μM) [6]: 18%
- ΔΨm with Glu + Mal (% change at 80 μM) [6]: 107%
- ΔΨm (% change from DMSO) ([6]; primary screen, ∼2.5 µM, average of duplicates, glutamate and malate): 0.8%
- ΔΨm with GP + Nig (% change at 80 μM) [2]: 1%
- IIF (% change from DMSO) ([3]; primary screen, ∼2.5 µM, average of duplicates, palmitoylcarnitine): 2.1%
- IC50 (mGPDH [4]; [11]): 20000 nM
- mGPDH (% change from DMSO) (mGPDH [4]; primary screen, ∼2.5 µM, average of duplicates, 16.7 mM glycerol phosphate, no added calcium): -12.2%
- inhibition at 80 µM (mGPDH [4]): 50%
- IF/DH (% change from DMSO) [7]: -2.6%
- IQ H2O2 production with 5 mM Suc (% change at 80 μM) [8]: -57%
- IQ (% change from DMSO) ([8]; primary screen, ∼2.5 µM, average of duplicates): 0.759%

SMILES: O=C(O)CCC(=O)Nc1ccc(-c2nc3cc4ccccc4cc3[nH]2)cc1 [iGP-5]
- effect on state 3 respiration with pyruvate and malate ([9]; 80 µM): significantly reduced
- effect on glycerol phosphate-dependent state 3 respiration ([9]; 25 and 80 µM): significantly decreased
- mGPDH Activity Hill Slope (mGPDH [10]; 1 µM free calcium): 0.85 and 0.85±0.07
- IC50 (mGPDH [10]; 1 µM free calcium, Fig. 9A): 1000 ± 200 nM
- K iu (uncompetitive inhibitor dissociation constant) (mGPDH [10]; co-varying glycerol phosphate and inhibitor): 1.1 ± 0.0 µM
- Ki (mGPDH [10]; co-varying glycerol phosphate and inhibitor, read-out: K ic (competitive inhibitor dissociation constant)): 700 nM
- effect on ΔΨm powered by glutamate and malate ([6]; 25 µM, only in the absence of nigericin): significantly increased
- ΔΨm with Glu + Mal + Nig (% change at 80 μM) [6]: 20%
- ΔΨm with Glu + Mal (% change at 80 μM) [6]: 106%
- ΔΨm with GP + Nig (% change at 80 μM) [2]: -26%
- effect on ΔΨm powered by glycerol phosphate ([2]; 2.5 and 25 µM): significantly decreased
- IC50 (mGPDH [4]; [11]): 700 nM
- IC50 (mGPDH [4]; Fig. 9B, read-out: mGPDH H2O2 Production IC50): 1000 ± 100 nM
- inhibition at 80 µM (mGPDH [4]): 65%
- IC50 (mGPDH [4]; titration up to 80 µM (Fig. 6B, Fig. 7B), read-out: half-maximal effect on H2O2 production by mGPDH): ~1000 nM
- IQ H2O2 production with 5 mM Suc (% change at 80 μM) [8]: -9%

SMILES: Cc1ccc(NC(=O)CCC(=O)O)cc1 [iGP-19]
- ΔΨm with Glu + Mal + Nig (% change at 80 μM) [6]: -2%
- ΔΨm with Glu + Mal (% change at 80 μM) [6]: -8%
- ΔΨm with GP + Nig (% change at 80 μM) [2]: -2%
- inhibition at 80 µM (mGPDH [4]): 1%
- IQ H2O2 production with 5 mM Suc (% change at 80 μM) [8]: 7%

SMILES: COC(=O)CCC(=O)Nc1ccc(C)cc1 [iGP-20]
- ΔΨm with Glu + Mal + Nig (% change at 80 μM) [6]: -1%
- ΔΨm with Glu + Mal (% change at 80 μM) [6]: -3%
- ΔΨm with GP + Nig (% change at 80 μM) [2]: 0%
- inhibition at 80 µM (mGPDH [4]): 20%
- IQ H2O2 production with 5 mM Suc (% change at 80 μM) [8]: -8%
